# Values quoted from earlier work as cited in US9718036B2, “Method of preparing carrier liquids” (The University of Liverpool, priority 2011, dated 2017).
# Conditions: at 20° C.
smiles,measurement,value
CC1(C)C(/C=C(\Cl)C(F)(F)F)C1C(=O)OC(C#N)c1cccc(Oc2ccccc2)c1 (stereo not shown) [λ-cyhalothrin],solubility in water,5 µg/mL
